Assay results published in patent US11273167B2, “Compositions and methods for modulating ABHD2 activity” (The Regents of the University of California, priority 2015, dated 2022).
Entries after “also recorded” stand apart in the source; their conditions may differ. Where two headings read alike, the source gives them in different places.

Experiments:
human CatSper channel [1] = biological target: human CatSper channel (Homo sapiens, UniProt Q7RTX7+Q86XQ3+Q8NEC5+Q96P56); assay: Whole-cell patch-clamp recording of CatSper currents (ICatSper) from human spermatozoa; assay type: cell-based
Chain of human CatSper channel (Homo sapiens, UniProt Q7RTX7+Q86XQ3+Q8NEC5+Q96P56) (Q8NEC5 whole entry): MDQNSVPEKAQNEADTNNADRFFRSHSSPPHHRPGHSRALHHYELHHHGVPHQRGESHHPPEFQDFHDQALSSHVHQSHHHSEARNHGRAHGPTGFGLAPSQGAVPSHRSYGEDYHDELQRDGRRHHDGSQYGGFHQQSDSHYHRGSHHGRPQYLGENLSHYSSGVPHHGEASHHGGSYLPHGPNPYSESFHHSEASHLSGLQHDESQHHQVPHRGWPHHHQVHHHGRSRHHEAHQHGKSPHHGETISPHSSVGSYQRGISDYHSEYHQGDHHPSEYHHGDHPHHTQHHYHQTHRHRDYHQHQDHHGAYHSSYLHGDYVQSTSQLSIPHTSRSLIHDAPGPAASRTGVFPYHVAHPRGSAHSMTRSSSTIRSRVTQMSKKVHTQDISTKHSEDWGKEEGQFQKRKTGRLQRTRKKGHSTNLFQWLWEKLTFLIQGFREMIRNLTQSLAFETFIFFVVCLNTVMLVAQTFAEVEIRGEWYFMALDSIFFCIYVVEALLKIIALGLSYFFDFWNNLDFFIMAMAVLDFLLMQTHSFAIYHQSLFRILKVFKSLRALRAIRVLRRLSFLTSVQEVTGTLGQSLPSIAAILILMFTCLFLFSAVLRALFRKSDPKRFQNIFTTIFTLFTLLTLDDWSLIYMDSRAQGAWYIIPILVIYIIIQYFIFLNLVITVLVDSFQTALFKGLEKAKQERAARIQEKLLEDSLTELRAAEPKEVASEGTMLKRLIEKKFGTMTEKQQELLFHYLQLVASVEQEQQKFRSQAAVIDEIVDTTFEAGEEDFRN
Chain of human CatSper channel (Homo sapiens, UniProt Q7RTX7+Q86XQ3+Q8NEC5+Q96P56) (Q86XQ3 whole entry): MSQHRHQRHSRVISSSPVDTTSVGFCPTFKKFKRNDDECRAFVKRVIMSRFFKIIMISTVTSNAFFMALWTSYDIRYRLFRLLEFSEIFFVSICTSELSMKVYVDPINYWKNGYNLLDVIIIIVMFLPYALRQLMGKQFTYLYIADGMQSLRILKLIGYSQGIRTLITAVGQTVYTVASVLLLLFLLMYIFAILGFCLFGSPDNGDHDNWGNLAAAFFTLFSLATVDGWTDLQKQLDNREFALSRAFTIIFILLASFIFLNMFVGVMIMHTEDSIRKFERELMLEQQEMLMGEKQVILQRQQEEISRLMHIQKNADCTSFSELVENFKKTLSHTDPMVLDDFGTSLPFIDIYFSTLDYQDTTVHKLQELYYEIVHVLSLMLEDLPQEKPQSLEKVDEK
Chain of human CatSper channel (Homo sapiens, UniProt Q7RTX7+Q86XQ3+Q8NEC5+Q96P56) (Q96P56 whole entry): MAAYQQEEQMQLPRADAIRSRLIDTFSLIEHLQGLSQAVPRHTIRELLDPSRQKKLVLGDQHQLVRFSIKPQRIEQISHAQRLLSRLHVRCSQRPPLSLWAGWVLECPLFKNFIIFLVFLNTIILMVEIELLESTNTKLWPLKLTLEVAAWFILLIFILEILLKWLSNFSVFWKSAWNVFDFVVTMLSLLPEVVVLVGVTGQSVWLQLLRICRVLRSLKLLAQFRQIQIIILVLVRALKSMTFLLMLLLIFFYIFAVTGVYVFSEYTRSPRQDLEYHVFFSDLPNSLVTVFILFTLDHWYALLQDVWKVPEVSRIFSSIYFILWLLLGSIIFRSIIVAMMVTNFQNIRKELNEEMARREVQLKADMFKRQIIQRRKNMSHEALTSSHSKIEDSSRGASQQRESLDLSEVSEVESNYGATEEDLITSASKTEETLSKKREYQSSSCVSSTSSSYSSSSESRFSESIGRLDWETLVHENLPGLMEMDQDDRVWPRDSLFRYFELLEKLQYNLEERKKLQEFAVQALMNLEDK
Chain of human CatSper channel (Homo sapiens, UniProt Q7RTX7+Q86XQ3+Q8NEC5+Q96P56) (Q7RTX7 whole entry): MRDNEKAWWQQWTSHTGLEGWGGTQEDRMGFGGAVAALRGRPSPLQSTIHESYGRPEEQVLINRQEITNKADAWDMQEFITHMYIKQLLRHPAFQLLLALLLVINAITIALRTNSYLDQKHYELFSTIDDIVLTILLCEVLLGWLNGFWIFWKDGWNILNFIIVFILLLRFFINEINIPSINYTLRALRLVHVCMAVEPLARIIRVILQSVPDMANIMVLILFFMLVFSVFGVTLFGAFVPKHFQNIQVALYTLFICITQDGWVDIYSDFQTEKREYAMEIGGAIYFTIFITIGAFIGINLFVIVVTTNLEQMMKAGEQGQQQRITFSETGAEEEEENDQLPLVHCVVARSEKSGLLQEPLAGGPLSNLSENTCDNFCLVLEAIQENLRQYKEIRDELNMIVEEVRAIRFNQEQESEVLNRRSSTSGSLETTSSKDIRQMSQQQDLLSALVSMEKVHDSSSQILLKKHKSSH
Description: (§1) All CatSper recordings was performed as described in (Lishko et al., 2013; Lishko et al., 2011). Briefly, gigaohm seal between the patch pipette and human spermatozoon was formed at the cytoplasmic droplet. Spermatozoa were patched either at the cytoplasmic droplet or, if the cytoplasmic droplet was inconspicuous, at the neck region. Seals were formed in high saline (HS) solution containing: 130 mM NaCl, 5 mM KCl, 1 mM MgSO4, 2 mM CaCl2, 5 mM glucose, 1 mM sodium pyruvate, 10 mM lactic acid, 20 mM HEPES, pH 7.4 adjusted with NaOH, 320 mOsm/L. Transition into the whole-cell mode was performed by applying short voltage pulses. Access resistance was 25-40 M. Cells were stimulated every 5 s. Data were sampled at 2-5 kHz and filtered at 1 kHz. Pipettes (11-17 MΩ) for whole-cell patch-clamp recordings of monovalent CatSper currents were filled with (in mM): 130 Cs-methanesulfonate, 70 HEPES, 3 EGTA, 2 EDTA, 0.5 TrisHCl, pH 7.4 adjusted with CsOH. Bath divalent free (DVF) solution for recording of monovalent CatSper currents contained (in mM): 140 Cs-methanesulfonate, 40 HEPES, 1 EDTA, pH 7.4 adjusted with CsOH. HEPES was substituted for MES in the event when acidic extracellular pH was used. HS solution was used to record baseline current while measuring monovalent CatSper currents (Ca^2+ in HS solution inhibits monovalent CatSper currents and causes Ca^2+-dependent inactivation of CatSper channels). Osmolarities of above mentioned solutions were approximately 321 mOsm/L and 335 mOsm/L for bath and pipette solutions, respectively. All electrophysiology experiments were performed at ambient temperature. IcatSper were elicited by voltage ramps from a holding potential of 0 mV. Ramps were applied from −80 mV to +80 mV. Data were analysed with Origin 7.0 and Clampfit 9.2. Statistical data were calculated as the mean±S.E.M., and (n) indicates number of experiments. To determine IcatSper inactivation rate current densities extracted from voltage ramps and acquired at +80 pA were plotted against time. The data were fitted with Boltzmann equation y=1/(1+exp((x−t)/dx)) and mean ti numbers were determined from (n) independent experiments. Statistical significance (t-test) is indicated by (**, p≤0.01 and *, p≤0.05).
(§2) Data were analyzed with Origin 7.0 and Clampfit 9.2. Statistical data were calculated and represented everywhere in text as the mean±S.E.M., and (n) indicates number of experiments. To determine ICatSper inactivation rate current densities extracted from voltage ramps and acquired at +80 pA were plotted against time. The data were fitted with Boltzmann equation y=1/[1+exp((x−τ)/dx)] and mean τ numbers were determined from (n) independent experiments. Hill equation was used to build dose-response curve: y=Vmax*x^n/(k^n+x^n). where n defines Hill slope factor, k defines IC50, and Vmax is close to 100% inhibition. Statistical significance (t test) is indicated by (****P<0.0001, ***P<0.001, **P<0.005 and *P<0.05).

human CatSper channel [2] = assay: as above; assay type: cell-based; conditions: for activation of CatSper current (ICatSper): whole-cell patch clamp; for effect on P4-dependent activation of CatSper (CatSper P4 sensitivity): human spermatozoa treated with the agent, then P4
Description: as §1, §2

mouse CatSper = biological target: T1, mouse CatSper (Mus musculus, UniProt A2ARP9+Q80W99+Q8BVN3+Q91ZR5); assay: Whole-cell patch-clamp recording of ICatSper from mouse spermatozoa; assay type: cell-based
T1 construct: Mouse spermatozoa were isolated from cauda epididymis; endogenous in cells; host or cells: mouse cauda epididymal spermatozoa

mouse spermatozoa = assay: Acrosome exocytosis assessment in live capacitated mouse sperm; assay type: cell-based; conditions: 3 μM P4, 3 μM AA
ABHD2 = biological target: T2, ABHD2 (Homo sapiens, UniProt P08910); assay: P4* UV cross-linking and streptavidin pull-down from human sperm, ABHD2 western blot; assay type: binding; conditions: 250 nM P4*
T2 construct: endogenous in cells; host or cells: human spermatozoa
T2 sequence (P08910 1-425): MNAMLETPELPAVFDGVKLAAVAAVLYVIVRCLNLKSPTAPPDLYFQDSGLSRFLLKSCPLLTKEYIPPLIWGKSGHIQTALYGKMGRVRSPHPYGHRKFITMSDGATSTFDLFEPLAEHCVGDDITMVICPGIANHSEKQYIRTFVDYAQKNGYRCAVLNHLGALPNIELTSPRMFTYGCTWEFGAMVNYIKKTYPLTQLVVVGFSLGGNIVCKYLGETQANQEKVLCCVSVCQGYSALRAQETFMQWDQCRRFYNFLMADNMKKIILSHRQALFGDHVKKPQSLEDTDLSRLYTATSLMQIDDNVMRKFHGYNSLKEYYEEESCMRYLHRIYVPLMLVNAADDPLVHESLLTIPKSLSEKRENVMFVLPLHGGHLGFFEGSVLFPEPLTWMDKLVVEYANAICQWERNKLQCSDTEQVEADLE
Description: After collection, sperm cells were treated with 0.5 units (U) of PI-PLC ([…]; Life Technologies, Carlsbad, Calif.) and incubated at 37° C. for an hour. […] Lysates were added to streptavidin coated magnetic beads (65001; Life Technologies, Carlsbad, Calif.) on ice for another thirty minutes with gentle agitation. Bound proteins were eluted by boiling in Laemmli Sample Buffer in the presence of beta-mercaptoethanol and subjected to SDS-polyacrylamide gel electrophoresis. […] Bands were excised and subjected to in-gel trypsinization after which peptides were extracted and dried for use in proteomic analysis. Protease inhibitors were used throughout the following procedure. Highly motile sperm swim-up fraction was subjected to osmotic shock by a 5 min incubation in 0.5×HS solution, addition of 10 mM EDTA and 10 mM DTT for 10 min, and sonication in a water bath at 25° C. for 5 min. Osmolarity was adjusted by addition of 10×PBS. 5× Laemmli sample buffer was added to a final 1× concentration and the DTT concentration adjusted to 20 mM. An additional 5 min sonication and boiling at 100° C. for 5 min were performed. Total crude cell lysate was loaded onto a 4-20% gradient Tris-HCl CriterionTM SDS-PAGE gel (BioRad). […] Following transfer to PVDF membranes, blots were blocked in 0.1% PBS-Tween20 with 3% IgG free BSA for 15 min and incubated in primary antibodies overnight at 4° C. […]

human CatSper channel [3] = conditions: shown previously (Lishko et al., 2011); cited from earlier work
[4] = human spermatozoa, extracellular application

## CCCCC/C=C\C/C=C\C/C=C\C/C=C\CCCC(=O)OCC(O)CO (centres unmarked) [1-AG, 1-arachidonoylglycerol]
Human CatSper channel [1]
  percent inhibition of CatSper outward current: 85.0±0.5%
  rate of CatSper inactivation, decline in current amplitude τ: 2.7 ± 0.2 min
Human CatSper channel [2]
  effect on nascent/basal CatSper current: inhibited ICatSper

## CCCCC/C=C\C/C=C\C/C=C\C/C=C\CCCC(=O)OC(CO)CO [2-AG, 2-arachidonoylglycerol]
Human CatSper channel [1]
  inhibition of ICatSper on intracellular application: could not mimic this effect
  percent inhibition of CatSper outward current: 92.4±3.5%
  rate of CatSper inactivation, decline in current amplitude τ: 1.6 ± 0.3 min
Human CatSper channel [1]; read-out: median inhibitory concentration (IC50) of ICatSper, inward currents
  IC50: 670 nM
Human CatSper channel [1]; read-out: median inhibitory concentration (IC50) of ICatSper, outward currents
  IC50: 350 nM
Human CatSper channel [2]
  effect on nascent/basal CatSper current: inhibited ICatSper
Mouse CatSper; compared with human ICatSper
  inhibition of mouse ICatSper: inhibits mouse ICatSper but with less efficacy than it inhibits human ICatSper
Mouse CatSper; mouse CatSper, n=5
  percent inhibition against the outward current: 73.9±4.4%

## CC(=O)[C@@]1(O)CC[C@H]2[C@@H]3CCC4=CC(=O)CC[C@]4(C)[C@H]3CC[C@@]21C [17-OH—P]
Human CatSper channel [2]; human spermatozoa
  activation of CatSper current (ICatSper): reversibly activated

## CCCCC/C=C\C/C=C\C/C=C\C/C=C\CCCC(=O)O [AA, arachidonic acid]
Mouse spermatozoa
  stimulation of mouse acrosome reaction (AR): stimulate mouse AR to similar levels
Human CatSper channel [2]; ICatSper at +80 mV and −80 mV over time
  regulation of CatSper by arachidonic acid: Dual Regulator of CatSper

## CCCCC/C=C\C/C=C\C/C=C\C/C=C\CCCC(=O)NCCO [AEA, anandamide]
Human CatSper channel [2]
  effect on nascent/basal CatSper current: does not change nascent CatSper behaviour; also recorded: had no effect

## O=C(Nc1ccccc1)N1CCC(Cc2cnc3ccccc3c2)CC1 [PF750]
Human CatSper channel [2]
  effect on P4-dependent activation of CatSper (CatSper P4 sensitivity): did not change CatSper sensitivity to P4

## CCCCC[C@H](O)/C=C/[C@H]1[C@H](O)CC(=O)[C@@H]1CCCCCCC(=O)O [PGE1, prostaglandin E1]
Human CatSper channel [2]; human spermatozoa
  activation of CatSper current (ICatSper): stimulated CatSper activation

## OCC(O)CO [glycerol]
Human CatSper channel [2]
  effect on P4-dependent activation of CatSper (CatSper P4 sensitivity): did not ablate ICatSper or its regulation by P4
Human CatSper channel [2]; [4]
  effect on nascent/basal CatSper current: did not ablate ICatSper

## estrogen
ABHD2
  ABHD2 in P4* pull-down in the presence of competing steroid: ABHD2 presence in pull-down experiments
Human CatSper channel [3]
  interference with P4 activation of CatSper: do not interfere with P4 activation of CatSper

## lysophosphatidylethanolamine [lyso-PE]
Human CatSper channel [2]; [4]
  effect on nascent/basal CatSper current: Neither lysophosphatidylinositol (lyso-PI) nor lysophosphatidylethanolamine (lyso-PE) affected nascent CatSper current

## lysophosphatidylinositol [lyso-PI]
Human CatSper channel [2]; [4]
  effect on nascent/basal CatSper current: Neither lysophosphatidylinositol (lyso-PI) nor lysophosphatidylethanolamine (lyso-PE) affected nascent CatSper current
